{"source": "paper PMC11238919", "about": "(Virulence, 2024)", "key": {"SHIP2-SH2 domain": {"target": "T1, SHIP2-SH2 domain (Homo sapiens, UniProt O15357)", "T1 sequence (O15357 21-117 limits assumed)": "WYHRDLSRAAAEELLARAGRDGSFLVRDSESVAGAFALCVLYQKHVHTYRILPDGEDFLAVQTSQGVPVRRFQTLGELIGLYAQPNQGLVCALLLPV", "test": "SPR affinity of EPIpYA peptides to immobilized SHIP2-SH2 domain", "assay_type": "binding", "details": "EPIpYA-D versus EPIpYA-C"}, "[1]": {"test_system": "hummingbird phenotype of infected cells", "test": "Hummingbird phenotype of infected cells", "assay_type": "cell-based", "details": "SHP099 10 µM added 48 h before infection"}, "SHIP2": {"test_system": "SHIP2", "details": "ref [15]; cited from earlier work"}, "SHP2": {"test_system": "SHP2", "details": "ref [10]; cited from earlier work"}, "[2]": {"target": "T2, His-tagged SHIP2-SH2 domain (UniProt O15357 21-117)", "T2 sequence (looked up)": "T1 sequence (O15357 21-117 limits assumed)", "test": "SPR"}}, "note": "Where “and” joins values, the source holds several entries; their conditions need not be identical. Equal entries are not always repeated. Where no end group is shown, it is not given here. [ ]: non-standard residue; d: D form. pY = N[C@@H](Cc1ccc(OP(=O)(O)O)cc1)C(=O)O", "data": [{"molecule": "CC[C@H](C)[C@H](NC(=O)[C@@H](NC(=O)[C@H](C)NC(=O)[C@H](Cc1ccc(OP(=O)(O)O)cc1)NC(=O)[C@@H](NC(=O)[C@@H]1CCCN1C(=O)[C@H](CCC(=O)O)NC(=O)[C@@H]1CCCN1C(=O)[C@H](CO)NC(=O)[C@H](C)N)[C@@H](C)CC)[C@@H](C)O)C(=O)N[C@@H](CC(=O)O)C(=O)N[C@@H](Cc1ccccc1)C(=O)N[C@@H](CC(=O)O)C(=O)O", "note": "[EPIpYA-D]", "values": [{"measurement": "KD approximately 10 times lower than that of EPIpYA-C", "setting": "SHIP2-SH2 domain", "value": "approximately 10 times"}]}, {"molecule": "CC1(N)CCN(c2cnc(-c3cccc(Cl)c3Cl)c(N)n2)CC1", "note": "[SHP099]", "values": [{"measurement": "differences in morphological changes between strain groups", "setting": "[1]", "value": "the differences in the morphological changes between the groups were not obvious"}]}, {"molecule": "EPIYA-C: EPIYA-C motif of CagA^W (literature)", "values": [{"measurement": "binding to SHIP2, EPIYA-C versus EPIYA-D", "setting": "SHIP2", "value": "binds slightly strongly to EPIYA-C than EPIYA-D"}]}, {"molecule": "EPIYA-D: CagA^E-specific EPIYA-D segment (literature)", "values": [{"measurement": "binding to SHP2, EPIYA-D versus EPIYA-C", "setting": "SHP2", "value": "binds to SHP2 more strongly than the EPIYA-C segment"}]}, {"molecule": "ASPEPI[pY]ATIDFD", "note": "[tyrosine-phosphorylated EPIYA-D peptide (ASPEPIpYATIDFD)]", "values": [{"measurement": "Kd", "setting": "[2]", "value": "0.89 µM and 0.896 µM"}]}, {"molecule": "VSPEPI[pY]ATIDDL", "note": "[tyrosine-phosphorylated EPIYA-C peptide (VSPEPIpYATIDDL)]", "values": [{"measurement": "Kd", "setting": "[2]", "value": 8.35, "unit": "µM"}]}]}
